How the values were obtained:
Assay in all cases: radiometric filter-binding kinase assay, Kinase HotSpot
Details in all cases: compound 0.5 µM; ATP 10 µM
MAPK11 (human) = MAPK11 (human) (UniProt Q15759)
HIPK1 (human) = HIPK1 (human) (UniProt Q86Z02)
DAPK3 (human) = DAPK3 (human) (UniProt O43293)
TNK2 (human) = TNK2 (human) (UniProt Q07912)
EPHB4 (human) = EPHB4 (human) (UniProt P54760)
GSG2 (human) = GSG2 (human) (UniProt Q8TF76)
WEE1 (human) = WEE1 (human) (UniProt P30291)
AURKA (human) = AURKA (human) (UniProt O14965)
ITK (human) = ITK (human) (UniProt Q08881)
SIK2 (human) = SIK2 (human) (UniProt Q9H0K1)
GRK5 (human) = GRK5 (human) (UniProt P34947)
PAK2 (human) = PAK2 (human) (UniProt Q13177)
NEK6 (human) = NEK6 (human) (UniProt Q9HC98)
PRKG2 (human) = PRKG2 (human) (UniProt Q13237)
NEK4 (human) = NEK4 (human) (UniProt P51957)
PRKCE (human) = PRKCE (human) (UniProt Q02156)
RPS6KA5 KD2 (human) = RPS6KA5 KD2 (human) (UniProt O75582)
NEK9 (human) = NEK9 (human) (UniProt Q8TD19)
CDK5 CDK5R1 p35 (human) = CDK5 CDK5R1 p35 (human) (UniProt Q00535+Q15078)
MATK (human) = MATK (human) (UniProt P42679)
YES1 (human) = YES1 (human) (UniProt P07947)
CHUK (human) = CHUK (human) (UniProt O15111)
PDGFRA (human) = PDGFRA (human) (UniProt P16234)
PDGFRB (human) = PDGFRB (human) (UniProt P09619)
PKN1 (human) = PKN1 (human) (UniProt Q16512)
SRPK1 (human) = SRPK1 (human) (UniProt Q96SB4)
Chain of SRPK1 (human) (Q96SB4 whole entry, looked up): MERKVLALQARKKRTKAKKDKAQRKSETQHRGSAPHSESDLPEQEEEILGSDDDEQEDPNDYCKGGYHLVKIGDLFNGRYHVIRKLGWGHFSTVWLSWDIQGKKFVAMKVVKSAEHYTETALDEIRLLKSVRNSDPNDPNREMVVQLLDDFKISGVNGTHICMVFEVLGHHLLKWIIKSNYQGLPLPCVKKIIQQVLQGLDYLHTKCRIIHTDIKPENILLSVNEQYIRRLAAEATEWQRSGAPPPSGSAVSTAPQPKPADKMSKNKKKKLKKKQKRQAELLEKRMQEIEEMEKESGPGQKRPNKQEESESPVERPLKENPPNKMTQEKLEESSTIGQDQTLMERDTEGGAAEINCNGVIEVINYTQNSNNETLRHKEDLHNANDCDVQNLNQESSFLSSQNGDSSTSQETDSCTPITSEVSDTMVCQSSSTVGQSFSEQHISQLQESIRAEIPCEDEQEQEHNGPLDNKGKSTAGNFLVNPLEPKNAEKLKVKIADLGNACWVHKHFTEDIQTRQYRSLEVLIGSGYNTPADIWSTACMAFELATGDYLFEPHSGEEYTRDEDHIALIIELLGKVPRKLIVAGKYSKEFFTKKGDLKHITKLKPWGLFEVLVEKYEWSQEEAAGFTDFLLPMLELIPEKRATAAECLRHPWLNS

MAPKAPK5 (human) = MAPKAPK5 (human) (UniProt Q8IW41)
BTK (human) = BTK (human) (UniProt Q06187)
TSSK2 (human) = TSSK2 (human) (UniProt Q96PF2)
Chain of TSSK2 (human) (Q96PF2 whole entry, looked up): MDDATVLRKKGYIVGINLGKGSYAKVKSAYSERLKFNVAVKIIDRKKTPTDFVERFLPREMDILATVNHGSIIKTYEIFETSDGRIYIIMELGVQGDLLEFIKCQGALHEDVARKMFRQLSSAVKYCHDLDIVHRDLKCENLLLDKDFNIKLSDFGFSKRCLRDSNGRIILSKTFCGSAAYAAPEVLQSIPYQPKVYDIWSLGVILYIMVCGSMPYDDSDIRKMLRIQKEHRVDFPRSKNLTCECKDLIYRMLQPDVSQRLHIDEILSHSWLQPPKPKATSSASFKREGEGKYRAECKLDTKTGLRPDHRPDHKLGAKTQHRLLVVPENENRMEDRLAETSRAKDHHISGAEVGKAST

INSRR (human) = INSRR (human) (UniProt P14616)
CSK (human) = CSK (human) (UniProt P41240)
Chain of CSK (human) (P41240 whole entry, looked up): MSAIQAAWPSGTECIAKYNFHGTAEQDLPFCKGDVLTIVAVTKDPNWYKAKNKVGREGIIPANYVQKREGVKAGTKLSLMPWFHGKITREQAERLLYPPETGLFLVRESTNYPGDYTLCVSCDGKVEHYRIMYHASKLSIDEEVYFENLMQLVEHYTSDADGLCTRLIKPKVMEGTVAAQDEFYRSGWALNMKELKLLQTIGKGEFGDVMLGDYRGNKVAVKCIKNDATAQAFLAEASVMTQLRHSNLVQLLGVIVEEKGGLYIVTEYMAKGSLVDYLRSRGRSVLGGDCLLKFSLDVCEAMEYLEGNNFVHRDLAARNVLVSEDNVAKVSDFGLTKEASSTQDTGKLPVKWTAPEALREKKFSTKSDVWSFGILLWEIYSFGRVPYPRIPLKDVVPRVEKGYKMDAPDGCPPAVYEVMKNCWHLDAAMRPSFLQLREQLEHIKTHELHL

CAMK4 (human) = CAMK4 (human) (UniProt Q16566)
ADRBK2 (human) = ADRBK2 (human) (UniProt P35626)
NEK3 (human) = NEK3 (human) (UniProt P51956)
[1] = target: JAK1 JH1 catalytic (human) (UniProt P23458)
VRK1 (human) = VRK1 (human) (UniProt Q99986)
MAP2K2 (human) = MAP2K2 (human) (UniProt P36507)
[2] = target: TYK2 JH1 catalytic (human) (UniProt P29597)
NEK11 (human) = NEK11 (human) (UniProt Q8NG66)
MAPK1 (human) = MAPK1 (human) (UniProt P28482)
TEC (human) = TEC (human) (UniProt P42680)
MAP3K9 (human) = MAP3K9 (human) (UniProt P80192)

Chain of HIPK1 (human) (Q86Z02 whole entry, looked up): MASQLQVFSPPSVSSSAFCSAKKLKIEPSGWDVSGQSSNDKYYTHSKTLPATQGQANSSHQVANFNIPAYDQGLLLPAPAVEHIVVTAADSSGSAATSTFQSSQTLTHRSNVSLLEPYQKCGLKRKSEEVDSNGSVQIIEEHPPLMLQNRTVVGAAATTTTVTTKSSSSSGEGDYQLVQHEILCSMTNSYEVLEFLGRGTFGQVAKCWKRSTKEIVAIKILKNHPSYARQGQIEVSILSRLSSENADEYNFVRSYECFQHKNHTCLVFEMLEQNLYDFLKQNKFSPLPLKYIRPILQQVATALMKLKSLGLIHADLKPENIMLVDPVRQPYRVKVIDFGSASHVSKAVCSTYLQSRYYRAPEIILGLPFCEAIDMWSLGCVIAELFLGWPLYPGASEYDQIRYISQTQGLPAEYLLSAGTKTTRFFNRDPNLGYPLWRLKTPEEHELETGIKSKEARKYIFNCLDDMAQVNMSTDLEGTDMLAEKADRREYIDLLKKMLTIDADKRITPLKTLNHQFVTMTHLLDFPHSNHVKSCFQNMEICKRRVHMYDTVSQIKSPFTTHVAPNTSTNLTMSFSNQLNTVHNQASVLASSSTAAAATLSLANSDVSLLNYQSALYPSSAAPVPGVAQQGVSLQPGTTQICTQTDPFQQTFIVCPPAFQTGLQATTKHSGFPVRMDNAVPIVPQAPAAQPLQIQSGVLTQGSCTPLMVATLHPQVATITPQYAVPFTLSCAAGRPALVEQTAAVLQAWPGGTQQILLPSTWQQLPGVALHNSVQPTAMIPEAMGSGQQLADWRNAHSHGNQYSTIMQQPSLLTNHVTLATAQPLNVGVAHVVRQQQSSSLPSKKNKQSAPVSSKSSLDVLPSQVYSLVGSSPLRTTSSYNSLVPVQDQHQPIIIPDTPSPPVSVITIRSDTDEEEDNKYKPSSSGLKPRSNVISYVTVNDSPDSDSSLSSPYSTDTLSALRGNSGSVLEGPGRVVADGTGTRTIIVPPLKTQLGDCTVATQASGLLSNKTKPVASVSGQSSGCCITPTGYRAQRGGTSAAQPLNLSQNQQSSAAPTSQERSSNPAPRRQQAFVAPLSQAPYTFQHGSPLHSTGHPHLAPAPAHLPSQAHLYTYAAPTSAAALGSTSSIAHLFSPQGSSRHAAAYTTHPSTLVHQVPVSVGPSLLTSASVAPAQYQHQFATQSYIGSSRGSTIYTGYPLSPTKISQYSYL
Chain of GSG2 (human) (Q8TF76 whole entry, looked up): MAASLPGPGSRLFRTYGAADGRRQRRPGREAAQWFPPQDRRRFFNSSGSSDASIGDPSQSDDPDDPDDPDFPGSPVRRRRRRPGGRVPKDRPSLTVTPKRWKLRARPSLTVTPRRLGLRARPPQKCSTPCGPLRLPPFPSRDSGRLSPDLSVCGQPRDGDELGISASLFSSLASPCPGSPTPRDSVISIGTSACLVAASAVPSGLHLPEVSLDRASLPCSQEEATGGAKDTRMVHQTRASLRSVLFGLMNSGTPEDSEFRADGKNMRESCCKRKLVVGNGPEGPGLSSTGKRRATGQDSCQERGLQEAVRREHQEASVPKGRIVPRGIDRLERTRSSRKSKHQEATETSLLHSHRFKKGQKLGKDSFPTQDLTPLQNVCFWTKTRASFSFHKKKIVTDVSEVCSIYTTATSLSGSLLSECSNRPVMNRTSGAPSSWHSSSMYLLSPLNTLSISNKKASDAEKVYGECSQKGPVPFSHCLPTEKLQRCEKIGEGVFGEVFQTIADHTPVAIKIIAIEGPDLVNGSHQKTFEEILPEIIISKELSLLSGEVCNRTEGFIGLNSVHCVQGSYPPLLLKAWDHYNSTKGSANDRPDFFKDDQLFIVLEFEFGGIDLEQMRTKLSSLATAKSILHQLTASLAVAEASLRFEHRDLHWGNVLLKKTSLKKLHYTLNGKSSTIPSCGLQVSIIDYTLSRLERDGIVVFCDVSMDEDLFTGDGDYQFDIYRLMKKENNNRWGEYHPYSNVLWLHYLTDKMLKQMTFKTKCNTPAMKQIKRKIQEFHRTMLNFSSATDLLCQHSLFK
Chain of EPHB4 (human) (P54760 whole entry, looked up): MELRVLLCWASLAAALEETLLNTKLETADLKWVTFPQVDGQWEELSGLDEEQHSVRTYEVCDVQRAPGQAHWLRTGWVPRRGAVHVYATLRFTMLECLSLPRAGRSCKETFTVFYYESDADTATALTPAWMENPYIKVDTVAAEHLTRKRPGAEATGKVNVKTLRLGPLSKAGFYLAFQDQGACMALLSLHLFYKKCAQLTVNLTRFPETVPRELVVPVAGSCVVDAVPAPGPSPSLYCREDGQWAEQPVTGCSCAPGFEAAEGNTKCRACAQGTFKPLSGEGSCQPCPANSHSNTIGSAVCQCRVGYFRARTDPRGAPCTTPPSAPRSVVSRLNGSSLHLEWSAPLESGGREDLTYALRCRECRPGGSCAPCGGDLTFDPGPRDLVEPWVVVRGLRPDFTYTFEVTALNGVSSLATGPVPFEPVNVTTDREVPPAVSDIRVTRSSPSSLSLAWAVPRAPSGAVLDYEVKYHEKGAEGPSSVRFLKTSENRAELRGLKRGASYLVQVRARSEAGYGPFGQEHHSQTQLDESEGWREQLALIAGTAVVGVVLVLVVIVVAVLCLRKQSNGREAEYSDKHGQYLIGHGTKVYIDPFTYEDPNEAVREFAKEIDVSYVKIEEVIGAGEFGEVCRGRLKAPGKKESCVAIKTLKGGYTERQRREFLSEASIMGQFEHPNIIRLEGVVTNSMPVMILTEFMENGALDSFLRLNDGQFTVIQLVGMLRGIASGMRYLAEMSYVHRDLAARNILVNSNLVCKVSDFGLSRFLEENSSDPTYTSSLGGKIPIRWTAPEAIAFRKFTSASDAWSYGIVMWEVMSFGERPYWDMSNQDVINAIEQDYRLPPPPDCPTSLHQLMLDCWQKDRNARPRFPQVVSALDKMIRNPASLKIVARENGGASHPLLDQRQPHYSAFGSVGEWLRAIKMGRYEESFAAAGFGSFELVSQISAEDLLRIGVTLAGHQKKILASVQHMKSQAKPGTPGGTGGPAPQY
Chain of DAPK3 (human) (O43293 whole entry, looked up): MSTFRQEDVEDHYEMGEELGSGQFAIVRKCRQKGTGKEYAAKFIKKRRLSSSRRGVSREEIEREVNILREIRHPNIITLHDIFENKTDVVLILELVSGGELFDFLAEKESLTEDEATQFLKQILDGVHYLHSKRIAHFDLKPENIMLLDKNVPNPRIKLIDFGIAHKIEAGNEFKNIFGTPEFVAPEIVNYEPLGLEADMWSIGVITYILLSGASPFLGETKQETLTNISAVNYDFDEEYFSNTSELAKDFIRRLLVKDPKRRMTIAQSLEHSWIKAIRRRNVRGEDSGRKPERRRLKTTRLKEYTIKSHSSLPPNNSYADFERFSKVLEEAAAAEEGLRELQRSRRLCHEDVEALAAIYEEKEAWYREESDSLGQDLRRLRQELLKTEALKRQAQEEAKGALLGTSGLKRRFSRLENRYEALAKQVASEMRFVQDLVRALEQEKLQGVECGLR

## Cc1nc2cc3nc(-c4cccs4)cnc3cc2n1C
MAPK11 (human)
  residual activity: 101%
HIPK1 (human)
  residual activity: 103%
DAPK3 (human)
  residual activity: 102%
TNK2 (human)
  residual activity: 100%
EPHB4 (human)
  residual activity: 92.1%
GSG2 (human)
  residual activity: 108%
WEE1 (human)
  residual activity: 86.9%
AURKA (human)
  residual activity: 84.8%
ITK (human)
  residual activity: 96.7%
SIK2 (human)
  residual activity: 112%
GRK5 (human)
  residual activity: 108%
PAK2 (human)
  residual activity: 102%
NEK6 (human)
  residual activity: 99.2%
PRKG2 (human)
  residual activity: 87.7%
NEK4 (human)
  residual activity: 95.2%
PRKCE (human)
  residual activity: 108%
RPS6KA5 KD2 (human)
  residual activity: 109%
NEK9 (human)
  residual activity: 105%
CDK5 CDK5R1 p35 (human)
  residual activity: 107%
MATK (human)
  residual activity: 100%
YES1 (human)
  residual activity: 66.9%
CHUK (human)
  residual activity: 96.2%
PDGFRA (human)
  residual activity: 23.8%
PDGFRB (human)
  residual activity: 63.3%
PKN1 (human)
  residual activity: 96.5%
SRPK1 (human)
  residual activity: 107%
MAPKAPK5 (human)
  residual activity: 100%
BTK (human)
  residual activity: 101%
TSSK2 (human)
  residual activity: 98.2%
INSRR (human)
  residual activity: 99.5%
CSK (human)
  residual activity: 101%
CAMK4 (human)
  residual activity: 94.7%
ADRBK2 (human)
  residual activity: 99.2%
NEK3 (human)
  residual activity: 108%
[1]
  residual activity: 105%
VRK1 (human)
  residual activity: 95.6%
MAP2K2 (human)
  residual activity: 77.5%
[2]
  residual activity: 102%
NEK11 (human)
  residual activity: 93.1%
MAPK1 (human)
  residual activity: 110%
TEC (human)
  residual activity: 158%
MAP3K9 (human)
  residual activity: 90.3%

## O=C(CCCc1ccc(-c2ccccc2F)cc1)Nc1ccc(O)cc1
MAPK11 (human)
  residual activity: 79.7%
HIPK1 (human)
  residual activity: 105%
DAPK3 (human)
  residual activity: 104%
TNK2 (human)
  residual activity: 99.2%
EPHB4 (human)
  residual activity: 106%
GSG2 (human)
  residual activity: 94.7%
WEE1 (human)
  residual activity: 83.7%
AURKA (human)
  residual activity: 104%
ITK (human)
  residual activity: 85%
SIK2 (human)
  residual activity: 102%
GRK5 (human)
  residual activity: 98.4%
PAK2 (human)
  residual activity: 101%
NEK6 (human)
  residual activity: 99.4%
PRKG2 (human)
  residual activity: 102%
NEK4 (human)
  residual activity: 103%
PRKCE (human)
  residual activity: 103%
RPS6KA5 KD2 (human)
  residual activity: 95.2%
NEK9 (human)
  residual activity: 92.7%
CDK5 CDK5R1 p35 (human)
  residual activity: 92.5%
MATK (human)
  residual activity: 92.2%
YES1 (human)
  residual activity: 110%
CHUK (human)
  residual activity: 97.3%
PDGFRA (human)
  residual activity: 96.5%
PDGFRB (human)
  residual activity: 98.2%
PKN1 (human)
  residual activity: 105%
SRPK1 (human)
  residual activity: 98.6%
MAPKAPK5 (human)
  residual activity: 91.4%
BTK (human)
  residual activity: 98.2%
TSSK2 (human)
  residual activity: 115%
INSRR (human)
  residual activity: 92.7%
CSK (human)
  residual activity: 88%
CAMK4 (human)
  residual activity: 99.6%
ADRBK2 (human)
  residual activity: 100%
NEK3 (human)
  residual activity: 109%
[1]
  residual activity: 98.2%
VRK1 (human)
  residual activity: 95.5%
MAP2K2 (human)
  residual activity: 95.1%
[2]
  residual activity: 96.5%
NEK11 (human)
  residual activity: 100%
MAPK1 (human)
  residual activity: 69.9%
TEC (human)
  residual activity: 86%
MAP3K9 (human)
  residual activity: 100%

## O=C(Nc1cccc(Nc2cc(Nc3cccc(C(F)(F)F)c3)ncn2)c1)C1CC1
MAPK11 (human)
  residual activity: 97.2%
HIPK1 (human)
  residual activity: 99.7%
DAPK3 (human)
  residual activity: 99.8%
TNK2 (human)
  residual activity: 98.7%
EPHB4 (human)
  residual activity: 97.8%
GSG2 (human)
  residual activity: 96.4%
WEE1 (human)
  residual activity: 94%
AURKA (human)
  residual activity: 107%
ITK (human)
  residual activity: 97.2%
SIK2 (human)
  residual activity: 89.4%
GRK5 (human)
  residual activity: 109%
PAK2 (human)
  residual activity: 103%
NEK6 (human)
  residual activity: 99.2%
PRKG2 (human)
  residual activity: 103%
NEK4 (human)
  residual activity: 90.6%
PRKCE (human)
  residual activity: 89.2%
RPS6KA5 KD2 (human)
  residual activity: 103%
NEK9 (human)
  residual activity: 101%
CDK5 CDK5R1 p35 (human)
  residual activity: 99.5%
MATK (human)
  residual activity: 96.1%
YES1 (human)
  residual activity: 99.6%
CHUK (human)
  residual activity: 95.6%
PDGFRA (human)
  residual activity: 86.4%
PDGFRB (human)
  residual activity: 101%
PKN1 (human)
  residual activity: 98.9%
SRPK1 (human)
  residual activity: 86.4%
MAPKAPK5 (human)
  residual activity: 101%
BTK (human)
  residual activity: 101%
TSSK2 (human)
  residual activity: 103%
INSRR (human)
  residual activity: 101%
CSK (human)
  residual activity: 102%
CAMK4 (human)
  residual activity: 98.5%
ADRBK2 (human)
  residual activity: 103%
NEK3 (human)
  residual activity: 94.4%
[1]
  residual activity: 103%
VRK1 (human)
  residual activity: 94%
MAP2K2 (human)
  residual activity: 101%
[2]
  residual activity: 102%
NEK11 (human)
  residual activity: 94.3%
MAPK1 (human)
  residual activity: 101%
TEC (human)
  residual activity: 115%
MAP3K9 (human)
  residual activity: 107%

## CCN(CC)CCCCN1c2ccccc2Oc2ccc(Cl)cc21
MAPK11 (human)
  residual activity: 103%
HIPK1 (human)
  residual activity: 106%
DAPK3 (human)
  residual activity: 106%
TNK2 (human)
  residual activity: 94.7%
EPHB4 (human)
  residual activity: 97.9%
GSG2 (human)
  residual activity: 104%
WEE1 (human)
  residual activity: 92.7%
AURKA (human)
  residual activity: 93.3%
ITK (human)
  residual activity: 101%
SIK2 (human)
  residual activity: 111%
GRK5 (human)
  residual activity: 103%
PAK2 (human)
  residual activity: 98.6%
NEK6 (human)
  residual activity: 107%
PRKG2 (human)
  residual activity: 94.4%
NEK4 (human)
  residual activity: 110%
PRKCE (human)
  residual activity: 109%
RPS6KA5 KD2 (human)
  residual activity: 107%
NEK9 (human)
  residual activity: 98.8%
CDK5 CDK5R1 p35 (human)
  residual activity: 90.3%
MATK (human)
  residual activity: 99.9%
YES1 (human)
  residual activity: 88.5%
CHUK (human)
  residual activity: 98.8%
PDGFRA (human)
  residual activity: 102%
PDGFRB (human)
  residual activity: 103%
PKN1 (human)
  residual activity: 89.6%
SRPK1 (human)
  residual activity: 97.2%
MAPKAPK5 (human)
  residual activity: 95.9%
BTK (human)
  residual activity: 99.2%
TSSK2 (human)
  residual activity: 103%
INSRR (human)
  residual activity: 102%
CSK (human)
  residual activity: 99.1%
CAMK4 (human)
  residual activity: 98.9%
ADRBK2 (human)
  residual activity: 87.5%
NEK3 (human)
  residual activity: 103%
[1]
  residual activity: 105%
VRK1 (human)
  residual activity: 101%
MAP2K2 (human)
  residual activity: 88.4%
[2]
  residual activity: 96.7%
NEK11 (human)
  residual activity: 92%
MAPK1 (human)
  residual activity: 84.7%
TEC (human)
  residual activity: 157%
MAP3K9 (human)
  residual activity: 95.7%
